Data on one molecule can be found in US20030005484A1, “Microbiocidal and pesticidal aromatic aldehydes” (ProGuard, Inc., priority 1994, published 2003).

Data set [1] has as its system powdery mildew. Briefly: powdery mildew on roses, disease rating / MPDC after foliar spray. Type of data set: in vivo, Sphaerotheca pannosa. The conditions noted are these: for Mean % Disease Control, rose powdery mildew: single 100 ml foliar spray; for Mean Percentage of Disease Control (MPDC), powdery mildew: five week trial. The method, then:
Each formulation is evaluated for its effect on specific pests and/or plant host using any of the compounds of formula (1) as well as other components of the formulation such as Tween 80 and/or sodium bicarbonate, with the combination and effective amount of each component adapted for a particular application to minimize toxicity while maintaining or increasing the antipathogenic effect of the formulation. The effective amount of each component may be determined by systematically varying the amount of that component in a test formulation, treating a plant of interest with the test formulation, and monitoring the level of pest infestation compared to an untreated control plant. An effective amount of a test component is identified as the amount that controls the growth of the pathogen on the plant host, thus reducing the disease rating of the plant. The mean percentage disease […] (MPDC) can be calculated for each particular application. MPDC is defined by the formula: [formula] Eight cultivars of rose were tested to investigate the effect of a cinnamic aldehyde/NaHCO3 formulation on rust and spores. The cultivars used included Moss unnamed (Moss), […], Rosette Delize (Hybrid Tea), Rosa Rugosa Rubra (Rugosa), Abel Morrison (Hybrid perpetual), John Laing, Betty Prior, and Rose de Roi. […] The Hybrid Tea and Hybrid perpetual were rated 3 and the Rugosa was rated 1. […] Control plants received no treatment. […] Moreover, the treatment appeared to have induced systemic resistance. […] Plants were an average of 0.86 m apart. […] Controls were untreated plants. […] Weekly reviews were made of the various plants. […] of infected rose in dedicated experimental rose gardens were used. Four Mrs. John Laing (Hybrid perpetual) and two Marchionese of Londonderry (Hybrid perpetual) rose plants were treated with one of two formulations of coniferyl aldehyde. […] The first two Mrs. […] Mrs. […] Both Marchionese of Londonderry plants (P5 and P6) were rated 5 for powdery mildew and rust after Paulus and Nelson (supra). Two treatment formulae were used for this trial. […] Control plants were sprayed with water alone. The change in the rating from pre-treatment to post-treatment was calculated as the mean percentage of disease control (MPDC) as described herein. A three treatment experiment with cinnamic aldehyde formula, coniferyl aldehyde formula and combined cinnamic and coniferyl aldehyde formula was carried out on field grown roses known to be susceptible to powdery mildew. The plants were blocked by variety before fungicide treatments and were randomized as to the plants. Two varieties were used in each of the three experiments described below. […] In experiment 3 Comte de Chambord (Portland) and Madame Pierre Oger (Bourbon) were used. In Experiment 1, the effect of cinnamic aldehyde alone and in combination with Tween 80 and/or NaHCO3 component was evaluated in experiment 2 the effect of coniferyl aldehyde alone and in combination with Tween 80 and/or NaHCO3 was evaluated and in experiment 3 a combination of cinnamic aldehyde and coniferyl aldehyde with Tween 80 and/or NaHCo3 was evaluated. […] See Table 3 for the treatment protocol; formula 1 was used for these experiments. […] Plants were evaluated using the Paulus/Nelson scale just prior to and four days after treatment. […] Moreover, cinnamic aldehyde, coniferyl aldehyde, Tween 80 and NaHCO3 are used in the food industry and there is likely to be little toxicological risk to the consumer or handler from any horticultural or food crop sprayed in this way. Similarly, as these chemicals leave no toxic residue, there is little chance of any detrimental effect on the wider environment, and their use is likely to be compatible with current biological control methods such as beneficial insects and/or microorganisms.

The subject of data set [2] is aphids. Briefly: aphids on sprayed roses. Type of data set: in vivo. The settings on record: roses sprayed with emulsion of cinnamic aldehyde and sodium bicarbonate, concomitantly saponin.
Data set [3] relates to thrips insects (Frankliniella occidentalis). Briefly: residual activity on filter paper against thrips. Type of data set: in vivo. The settings on record: residue on filter paper, rehydrated 24 and 72 hours after spraying; thrips mortality after one hour. The method, then:
In the first experiment, two ml of two concentrations of CNMA (0.3 and 1%) were sprayed on filter paper (Whatman). As a negative control, two ml of water also were sprayed on filter paper. Twenty-four hours later, two ml of water were sprayed on treatment and control filter paper, which were then dried for 30 min. Approximately 30 thrips insects (Frankliniella occidentalis) were introduced and the number of F. occidentalis were observed after one hour. Mean mortality was calculated for each treatment.
After 72 hours, the treatment filter papers were flipped over and only the negative control filter paper and the filter paper treated with 1% CNMA were sprayed with 2 ml of water and allowed to dry for 30 minutes. Approximately 30 thrips were introduced to the two treated filter papers and after one hour the number of dead F. occidentalis were observed and the mean mortality calculated for each treatment. A similar assay was conducted using a-hexyl cinnamaldehyde. Mean mortality was higher for rehydrated filter papers compared to non-rehydrated filter papers over time.

For data set [4], the system named is grape phylloxera. The data set is described as follows: grape phylloxera adult and nymphal mortality, root dip. Type of data set: in vivo, Daktulosphaira vitifoliae. The conditions noted are these: for mortality of adults and nymphs: root dip, 5 days. On the procedure: Approximately twenty four eggs of phylloxera were allowed to develop for up to 30 days on standard excised grape roots. At around 30 days, some of the insects were nymphs while others were adults. New eggs were removed during the process. Insect infected roots were submerged into a test formula for 6 seconds then set aside to dry in the air. The percentage of live insects, as defined by growth, oviposition or limb movement, was determined after 5 days. An insect was considered dead if it abandoned its feed site.
In an initial test, doses of 20,000 ppm cinnamic aldehyde in water (i.e., 2% cinnamic aldehyde) with various additives were evaluated. Cinnamic aldehyde without any additives produced 83.3% mortality. With-1% Tween 80 added, 91.7% mortality was seen. With 6% NaHCO3 added to a solution of 2% cinnamic aldehyde, 91.7% mortality was seen. With 1% Tween 80 and 6% NaHCO3 added to a solution of 2% cinnamic aldehyde, 100% mortality was seen. Water with no additives produced no mortality, while a positive control solution of 250 ppm malathion in water gave 100% mortality.
For nymph and adult tests, eggs were placed on excised root pieces similar to those used for rearing purposes and these were sealed in Petri dishes and held at 24° C. for 18-25 days to allow insects to hatch, initiate feeding sites and develop. At about this time about half the population was in the adult stage. Prior to testing, the population on each root was determined as well as the developmental stage of each insect. Eggs were removed. These root pieces were then dipped for 5 sec into test solutions and allowed to air dry before they were returned to Petri dishes, sealed and placed back in the temperature chamber at 24° C. Mortality was determined after 5 days. Insects were considered dead if they appeared black or desiccated and if they had not developed since the pre-treatment reading and had laid no or few new eggs.

For the molecule `O=C/C=C/c1ccccc1` [cinnamic aldehyde], the “Mean % Disease Control, rose powdery mildew” value in data set [1] (aldehyde 5 g (mixture 2.5 g + 2.5 g) with NaHCO3 (80 g), four days) stood at 56%; in data set [1] (aldehyde 5 g (mixture 2.5 g + 2.5 g) with T80 (10 g), four days) it was 44%; in data set [1] (aldehyde 5 g (mixture 2.5 g + 2.5 g) with T80 + NaHCO3 (formulas G, M, Q), four days) it was 94%; in data set [1] (aldehyde 5 g (mixture 2.5 g + 2.5 g), no additive, rated four days after treatment) it was 50%. The “Mean Percentage of Disease Control (MPDC), powdery mildew” value in data set [1] (field rose Betty Prior, same single spray) stood at 64.3%; in data set [1] (field rose John Laing, single spray 5 g cinnamic aldehyde, 10 g Tween 80, 80 g NaHCO3 per 1000 g) it was 98.3%; in data set [1] (field rose Rose de Roi, same single spray), 100%. Moreover, the “MPDC, powdery mildew, average for all three roses” value in data set [1] (field roses John Laing, Betty Prior, Rose de Roi, same single spray) is 90.7%. Also, the “time plants remained free of powdery mildew and rust” value in data set [1] (potted or field roses sprayed to runoff with emulsion of cinnamic aldehyde and sodium bicarbonate, concomitantly saponin) is recorded as “up to 56 days”. The “powdery mildew after a single treatment” value in data set [1] (potted roses, ~100 ml foliar spray of 5 g cinnamic aldehyde, 80 g NaHCO3, 10 g Tween 80 per 1000 g, weekly saponin, observed 8 weeks) is listed as “eradicative”. Besides, the “aphids on treated plants” value in data set [2] is given as “remained free of aphids”. Besides, in data set [3], the residual activity result is on record as “have residual activity”. Moreover, the “mortality of adults and nymphs” value in data set [4] (2% cinnamic aldehyde with 1% Tween 80) is on record as 91.7%; in data set [4] (2% cinnamic aldehyde with 1% Tween 80 and 6% NaHCO3), 100%; in data set [4] (2% cinnamic aldehyde with 6% NaHCO3), 91.7%. The mortality at 20000 ppm in data set [4] (Daktulosphaira vitifoliae, 120 h, 2% cinnamic aldehyde (20,000 ppm) in water, no additives, roots submerged 6 seconds, read after 5 days, read-out: mortality of adults and nymphs) was 83.3%.

Broadly, the mortality is the share of the test organisms that died.
